Test results taken from ChEMBL document CHEMBL3797055, “Glabridin-chalcone hybrid molecules: drug resistance reversal agent against clinical isolates of methicillin-resistant Staphylococcus aureus” (Medchemcomm, 2016).
Values after ≈ are worked out from the molar mass of the structure shown.

Legend:
Format in all cases: functional
Staphylococcus aureus [1] = assay: Antibacterial activity against Staphylococcus aureus MTCC 96 by broth microdilution assay
Staphylococcus aureus [2] = assay: Potentiation of norfloxacin-induced antibacterial activity against clinical isolates of methicillin-resistant Staphylococcus aureus ST10342 assessed as reduction in norfloxacin MIC by checkerboard assay relative to control
Staphylococcus aureus [3] = assay: Antibacterial activity against clinical isolates of methicillin-resistant Staphylococcus aureus P4650 by checkerboard assay in presence of norfloxacin
Staphylococcus aureus [4] = assay: Potentiation of norfloxacin-induced antibacterial activity against clinical isolates of methicillin-resistant Staphylococcus aureus ST2071 assessed as reduction in norfloxacin MIC by checkerboard assay relative to control
Staphylococcus aureus [5] = assay: Bactericidal activity against clinical isolates of methicillin-resistant Staphylococcus aureus ST2071 assessed as reduction in viability at MIC after 24 hrs by time kill kinetic analysis relative to control
Staphylococcus aureus [6] = assay: Potentiation of norfloxacin-induced antibacterial activity against clinical isolates of methicillin-resistant Staphylococcus aureus P4423 assessed as reduction in norfloxacin MIC by checkerboard assay relative to control
Staphylococcus aureus [7] = assay: Potentiation of norfloxacin-induced antibacterial activity against clinical isolates of methicillin-resistant Staphylococcus aureus ST10342 assessed as norfloxacin MIC by checkerboard assay
Staphylococcus aureus [8] = assay: Ratio of MIC for clinical isolates of methicillin-resistant Staphylococcus aureus ST10342 to MIC for clinical isolates of methicillin-resistant Staphylococcus aureus ST10342 in presence of norfloxacin
Staphylococcus aureus [9] = assay: Antibacterial activity against clinical isolates of methicillin-resistant Staphylococcus aureus ST2071 by broth microdilution assay
Staphylococcus aureus [10] = assay: Antibacterial activity against clinical isolates of methicillin-resistant Staphylococcus aureus P4423 by broth microdilution assay
Staphylococcus aureus [11] = assay: Antibacterial activity against clinical isolates of methicillin-resistant Staphylococcus aureus ST10760 by broth microdilution assay
Staphylococcus aureus [12] = assay: Antibacterial activity against clinical isolates of methicillin-resistant Staphylococcus aureus P4629 by broth microdilution assay
Staphylococcus aureus [13] = assay: Potentiation of norfloxacin-induced antibacterial activity against clinical isolates of methicillin-resistant Staphylococcus aureus ST10760 assessed as reduction in norfloxacin MIC by checkerboard assay relative to control
Staphylococcus aureus [14] = assay: Potentiation of norfloxacin-induced antibacterial activity against clinical isolates of methicillin-resistant Staphylococcus aureus P4650 assessed as reduction in norfloxacin MIC by checkerboard assay relative to control
Staphylococcus aureus [15] = assay: Bactericidal activity against clinical isolates of methicillin-resistant Staphylococcus aureus ST2071 assessed as reduction in viability at 0.5 MIC after 24 hrs by time kill kinetic analysis relative to control
Staphylococcus aureus [16] = assay: Potentiation of norfloxacin-induced antibacterial activity against clinical isolates of methicillin-resistant Staphylococcus aureus P4650 assessed as norfloxacin MIC by checkerboard assay
Staphylococcus aureus [17] = assay: Potentiation of norfloxacin-induced antibacterial activity against clinical isolates of methicillin-resistant Staphylococcus aureus P4629 assessed as norfloxacin MIC by checkerboard assay
Staphylococcus aureus [18] = assay: Potentiation of norfloxacin-induced antibacterial activity against clinical isolates of methicillin-resistant Staphylococcus aureus ST10760 assessed as norfloxacin MIC by checkerboard assay
Staphylococcus aureus [19] = assay: Potentiation of norfloxacin-induced antibacterial activity against clinical isolates of methicillin-resistant Staphylococcus aureus ST2071 assessed as norfloxacin MIC by checkerboard assay
Staphylococcus aureus [20] = assay: Antibacterial activity against clinical isolates of methicillin-resistant Staphylococcus aureus ST2071 by checkerboard assay in presence of norfloxacin
Staphylococcus aureus [21] = assay: Ratio of MIC for clinical isolates of methicillin-resistant Staphylococcus aureus P4650 to MIC for clinical isolates of methicillin-resistant Staphylococcus aureus P4650 in presence of norfloxacin
Staphylococcus aureus [22] = assay: Antibacterial activity against clinical isolates of methicillin-resistant Staphylococcus aureus P4423 by checkerboard assay in presence of norfloxacin
Staphylococcus aureus [23] = assay: Ratio of MIC for clinical isolates of methicillin-resistant Staphylococcus aureus P4629 to MIC for clinical isolates of methicillin-resistant Staphylococcus aureus P4629 in presence of norfloxacin
Staphylococcus aureus [24] = assay: Potentiation of norfloxacin-induced antibacterial activity against clinical isolates of methicillin-resistant Staphylococcus aureus P4423 assessed as norfloxacin MIC by checkerboard assay
Staphylococcus aureus [25] = assay: Antibacterial activity against clinical isolates of methicillin-resistant Staphylococcus aureus ST10760 by checkerboard assay in presence of norfloxacin
Staphylococcus aureus [26] = assay: Potentiation of norfloxacin-induced antibacterial activity against clinical isolates of methicillin-resistant Staphylococcus aureus P4629 assessed as reduction in norfloxacin MIC by checkerboard assay relative to control
Staphylococcus aureus [27] = assay: Antibacterial activity against clinical isolates of methicillin-resistant Staphylococcus aureus ST10342 by broth microdilution assay
Staphylococcus aureus [28] = assay: Bactericidal activity against clinical isolates of methicillin-resistant Staphylococcus aureus ST2071 assessed as reduction in viability at 0.5 MIC after 24 hrs by time kill kinetic analysis in presence of norfloxacin relative to control
Staphylococcus aureus [29] = assay: Antibacterial activity against clinical isolates of methicillin-resistant Staphylococcus aureus ST10342 by checkerboard assay in presence of norfloxacin
Staphylococcus aureus [30] = assay: Antibacterial activity against clinical isolates of methicillin-resistant Staphylococcus aureus P4629 by checkerboard assay in presence of norfloxacin
Staphylococcus aureus [31] = assay: Ratio of MIC for clinical isolates of methicillin-resistant Staphylococcus aureus ST2071 to MIC for clinical isolates of methicillin-resistant Staphylococcus aureus ST2071 in presence of norfloxacin
Staphylococcus aureus [32] = assay: Antibacterial activity against clinical isolates of methicillin-resistant Staphylococcus aureus P4650 by broth microdilution assay
Staphylococcus aureus [33] = assay: Ratio of MIC for clinical isolates of methicillin-resistant Staphylococcus aureus ST10760 to MIC for clinical isolates of methicillin-resistant Staphylococcus aureus ST10760 in presence of norfloxacin
Staphylococcus aureus [34] = assay: Ratio of MIC for clinical isolates of methicillin-resistant Staphylococcus aureus P4423 to MIC for clinical isolates of methicillin-resistant Staphylococcus aureus P4423 in presence of norfloxacin

## COc1ccc([C@@H]2COc3c(cc(/C=C/C(=O)c4ccc(OC)c(OC)c4)c4c3C=CC(C)(C)O4)C2)c(OC)c1
Staphylococcus aureus [1]
  MIC: 25 µg/mL (≈ 46.1 µM)
Staphylococcus aureus [2]
  fold change (FC): 8
Staphylococcus aureus [3]
  fractional inhibitory concentration index (FICI): 0.5
Staphylococcus aureus [4]
  fold change (FC): 4
Staphylococcus aureus [5]
  fold change (FC): 2
Staphylococcus aureus [6]
  fold change (FC): 4
Staphylococcus aureus [7]
  MIC: 31.2 µg/mL
Staphylococcus aureus [8]
  Ratio: <=4
Staphylococcus aureus [9]
  MIC: 50 µg/mL (≈ 92.1 µM)
Staphylococcus aureus [10]
  MIC: 50 µg/mL (≈ 92.1 µM)
Staphylococcus aureus [11]
  MIC: 50 µg/mL (≈ 92.1 µM)
Staphylococcus aureus [12]
  MIC: 50 µg/mL (≈ 92.1 µM)
Staphylococcus aureus [13]
  fold change (FC): 4
Staphylococcus aureus [14]
  fold change (FC): 4
Staphylococcus aureus [15]
  fold change (FC): <=1.52
Staphylococcus aureus [16]
  MIC: 62.5 µg/mL
Staphylococcus aureus [17]
  MIC: 62.5 µg/mL
Staphylococcus aureus [18]
  MIC: 125 µg/mL
Staphylococcus aureus [19]
  MIC: 125 µg/mL
Staphylococcus aureus [20]
  fractional inhibitory concentration index (FICI): 0.5
Staphylococcus aureus [21]
  Ratio: <=4
Staphylococcus aureus [22]
  fractional inhibitory concentration index (FICI): 0.75
Staphylococcus aureus [23]
  Ratio: <=4
Staphylococcus aureus [24]
  MIC: 62.5 µg/mL
Staphylococcus aureus [25]
  fractional inhibitory concentration index (FICI): 0.75
Staphylococcus aureus [26]
  fold change (FC): 8
Staphylococcus aureus [27]
  MIC: 50 µg/mL (≈ 92.1 µM)
Staphylococcus aureus [28]
  fold change (FC): <=4
Staphylococcus aureus [29]
  fractional inhibitory concentration index (FICI): 0.375
Staphylococcus aureus [30]
  fractional inhibitory concentration index (FICI): 0.375
Staphylococcus aureus [31]
  Ratio: <=4
Staphylococcus aureus [32]
  MIC: 50 µg/mL (≈ 92.1 µM)

## COc1cc(OC)c([C@@H]2COc3c(cc(/C=C/C(=O)c4ccc(OC)c(OC)c4)c4c3C=CC(C)(C)O4)C2)cc1/C=C/C(=O)c1ccc(OC)c(OC)c1
Staphylococcus aureus [1]
  MIC: 12.5 µg/mL (≈ 17.1 µM)
Staphylococcus aureus [2]
  fold change (FC): 4
Staphylococcus aureus [3]
  fractional inhibitory concentration index (FICI): 0.75
Staphylococcus aureus [4]
  fold change (FC): 4
Staphylococcus aureus [5]
  fold change (FC): 2
Staphylococcus aureus [6]
  fold change (FC): 4
Staphylococcus aureus [7]
  MIC: 62.5 µg/mL
Staphylococcus aureus [9]
  MIC: 25 µg/mL (≈ 34.1 µM)
Staphylococcus aureus [10]
  MIC: 25 µg/mL (≈ 34.1 µM)
Staphylococcus aureus [11]
  MIC: 25 µg/mL (≈ 34.1 µM)
Staphylococcus aureus [12]
  MIC: 12.5 µg/mL (≈ 17.1 µM)
Staphylococcus aureus [33]
  Ratio: 4
Staphylococcus aureus [13]
  fold change (FC): 8
Staphylococcus aureus [14]
  fold change (FC): 4
Staphylococcus aureus [15]
  fold change (FC): <=1.52
Staphylococcus aureus [16]
  MIC: 62.5 µg/mL
Staphylococcus aureus [17]
  MIC: 125 µg/mL
Staphylococcus aureus [18]
  MIC: 62.5 µg/mL
Staphylococcus aureus [34]
  Ratio: 4
Staphylococcus aureus [19]
  MIC: 125 µg/mL
Staphylococcus aureus [20]
  fractional inhibitory concentration index (FICI): 0.5
Staphylococcus aureus [22]
  fractional inhibitory concentration index (FICI): 0.75
Staphylococcus aureus [24]
  MIC: 62.5 µg/mL
Staphylococcus aureus [25]
  fractional inhibitory concentration index (FICI): 0.375
Staphylococcus aureus [26]
  fold change (FC): 4
Staphylococcus aureus [27]
  MIC: 12.5 µg/mL (≈ 17.1 µM)
Staphylococcus aureus [28]
  fold change (FC): <=3
Staphylococcus aureus [29]
  fractional inhibitory concentration index (FICI): 0.75
Staphylococcus aureus [30]
  fractional inhibitory concentration index (FICI): 0.5
Staphylococcus aureus [31]
  Ratio: 4
Staphylococcus aureus [32]
  MIC: 12.5 µg/mL (≈ 17.1 µM)

## CC1(C)C=Cc2c(ccc3c2OC[C@@H](c2ccc(O)cc2O)C3)O1 [GLABRIDIN]
Staphylococcus aureus [1]
  MIC: 3.12 µg/mL (≈ 9.63 µM)
Staphylococcus aureus [2]
  fold change (FC): 2
Staphylococcus aureus [3]
  fractional inhibitory concentration index (FICI): 0.5
Staphylococcus aureus [4]
  fold change (FC): 2
Staphylococcus aureus [5]
  fold change (FC): 2
Staphylococcus aureus [6]
  fold change (FC): 2
Staphylococcus aureus [7]
  MIC: 125 µg/mL
Staphylococcus aureus [9]
  MIC: 12.5 µg/mL (≈ 38.5 µM)
Staphylococcus aureus [10]
  MIC: 12.5 µg/mL (≈ 38.5 µM)
Staphylococcus aureus [11]
  MIC: 12.5 µg/mL (≈ 38.5 µM)
Staphylococcus aureus [12]
  MIC: 12.5 µg/mL (≈ 38.5 µM)
Staphylococcus aureus [13]
  fold change (FC): 4
Staphylococcus aureus [14]
  fold change (FC): 4
Staphylococcus aureus [15]
  fold change (FC): <=1.52
Staphylococcus aureus [16]
  MIC: 62.5 µg/mL
Staphylococcus aureus [17]
  MIC: 125 µg/mL
Staphylococcus aureus [18]
  MIC: 125 µg/mL
Staphylococcus aureus [19]
  MIC: 250 µg/mL
Staphylococcus aureus [20]
  fractional inhibitory concentration index (FICI): 0.75
Staphylococcus aureus [21]
  Ratio: 4
Staphylococcus aureus [22]
  fractional inhibitory concentration index (FICI): 1
Staphylococcus aureus [23]
  Ratio: 4
Staphylococcus aureus [24]
  MIC: 125 µg/mL
Staphylococcus aureus [25]
  fractional inhibitory concentration index (FICI): 0.75
Staphylococcus aureus [26]
  fold change (FC): 4
Staphylococcus aureus [27]
  MIC: 12.5 µg/mL (≈ 38.5 µM)
Staphylococcus aureus [29]
  fractional inhibitory concentration index (FICI): 1
Staphylococcus aureus [30]
  fractional inhibitory concentration index (FICI): 0.5
Staphylococcus aureus [32]
  MIC: 12.5 µg/mL (≈ 38.5 µM)
